Laboratory results from patent US5049494A, “Conversion of mannose to fructose” (Allied-Signal Inc., priority 1989, dated 1991).

Each compound was assayed on immobilized mannose isomerase. Conditions: 0.4 g immobilized enzyme, 40° C., 5 ml of 0.1M sugar solution, after 18 hours.
Experimental: Mannose isomerase activity was typically determined at 40° C. using a feedstock containing 0.1M D-mannose and 0.2M Tris buffer at pH 6.5. Mannose isomerase activity was determined in extracts primarily by measuring mannose-dependent formation of fructose according to the method described by J. H. Roe, J Biol. Chem. 107: 15-19 (1934). Assay mixtures (1 ml) containing 200 mM Tris buffer, pH 7, 100 mM D-mannose, and appropriately diluted cell extract were incubated at 40° C. After 15 min., 0.2 ml of each reaction mixture was transferred to a separate tube and 0.2 ml of ethanol containing 0.1% (wt/vol) resorcinol and 0.6 ml of 10N HCl was added. The tubes were incubated at 80° C. for 8 min, and then placed in ice water to stop the reaction. The absorbance at 484 nm was determined and compared to a standard curve relating absorbance to fructose concentration. An absorbance of 0.1 was equivalent to 150 nmoles of fructose per ml of assay mixture. The conversion of mannose to fructose (as well as any reactions with other sugars) was also determined using HPLC and known standards.
A similar set of experiments was used to test the behavior of the enzyme in the presence of other sugar substrates. For such experiments a mixed sugar feed was prepared approximating the ratios of hemicellulose-derived sugars identified in sulfite waste liquor streams and containing (in grams per liter of 0.2M Tris buffer at pH 7) galactose (15.9), glucose (15.9), mannose (40.3), arabinose (8.0), and xylose (15.2),.

Loss of sugar, no detectable loss:
O=C[C@H](O)[C@@H](O)[C@@H](O)[C@H](O)CO [D-galactose], O=C[C@@H](O)[C@@H](O)[C@H](O)CO [D-lyxose], O=C[C@H](O)[C@@H](O)[C@H](O)CO [D-xylose], O=C(CO)[C@@H](O)[C@H](O)CO [D-xylulose], O=C[C@H](O)[C@@H](O)[C@@H](O)CO [L-arabinose], O=C[C@H](O)[C@H](O)[C@@H](O)[C@@H](O)CO [L-mannose], C[C@H](O)[C@H](O)[C@@H](O)[C@@H](O)C=O [L-rhamnose]
